pIC50: −log10 of the molar value. Like-named read-outs stand apart in the source and are kept apart here.
Experiments:
[1] = biological target: erbB2 (Homo sapiens, UniProt P04626); test: Isolated enzyme inhibition (Invitrogen Z′-LYTE kinase assay); assay type: biochemical; conditions: 10 μM ATP, duplicate
Experimental: (§1) The compounds of Table 1 were tested for their ability to inhibit erbB1, erbB1^T790M, erbB2 and erbB4 in an isolated enzyme assay. This assay utilises synthetic FRET-capable peptide substrates. Phosphorylation of these substrates protects them from cleavage by a development reagent, leaving their FRET-capabilities intact. […] As a further consideration, for compounds capable of irreversible inhibition of an enzyme, the IC50 reflects both reversible and irreversible binding to the enzyme.

[2] = biological target: erbB4 (Homo sapiens, UniProt Q15303); test: as above; assay type: biochemical; conditions: 10 μM ATP, duplicate
Experimental: as §1

[3] = tested on: A431 cells; test: Cellular growth inhibition (sulforhodamine B); conditions: for pIC50: Homo sapiens; for A431 Deact. (fold reduction in oxic growth inhibition relative to parent kinase inhibitor) / A431 HCR (Hypoxic Cytotoxicity Ratio): Table 3
[4] = tested on: SW620 cells; test: Cellular growth inhibition (sulforhodamine B); assay type: cell-based, Human; conditions: Table 3; for pIC50: Homo sapiens, SW-620
Experimental: (§2) Human A431, BT474, SKBR3, SKOV3, SW620, H1975 and HT29 carcinoma cells in log phase exponential growth in alpha minimal essential media (αMEM) containing 5% fetal bovine serum (FBS), were harvested by trypsinisation (1× trypsin/EDTA, Gibco Brl), counted, and seeded into 96 well plates (Nunc) at cell densities ranging from 800-1500 cells/well. Half of the cell samples were seeded into plates that were pre-equilibrated and held in an anoxic environment (90% N2, 5% H2, 5% CO2, 37° Q Anaerobic chamber, Coy Laboratory Products). […] At the end of this period the anoxic plates were recovered from the anaerobic camber and held under normoxia in a standard CO2 incubator (37° C.) for 20 hours. All plates were washed free of compound and cells were allowed to proliferate for a further 4 days in αMEM containing 5% FBS+antibiotics. Cells were fixed in trichloroacteic acid (30 min), washed and stained with sulforhodamine B (SRB, 60 min) prior to washing in acidified water. SRB was solubilised and absorption read at 450 nm to calculate cell densities. Inhibition of proliferation was calculated relative to untreated control wells.

[5] = biological target: erbB1^T790M (Homo sapiens, UniProt P00533, T790M); test: Isolated enzyme inhibition (Invitrogen Z′-LYTE kinase assay); assay type: biochemical; conditions: 10 μM ATP, duplicate
[6] = biological target: T1, erbB1 (Homo sapiens, UniProt P00533); test: Inhibition of erbB1 autophosphorylation in EGF-stimulated intact A431 cells (Western blot); conditions: for Deact. (fold reduction in cellular erbB1 inhibition relative to the parent kinase inhibitor): Table 2
[7] = biological target: T1, erbB1; test: Isolated enzyme inhibition (Invitrogen Z′-LYTE kinase assay); assay type: biochemical; conditions: 10 μM ATP, duplicate
[8] = tested on: SKBR3 cells; test: Cellular growth inhibition (sulforhodamine B); assay type: cell-based, Human; conditions: Table 3; for pIC50: Homo sapiens, SK-BR-3
[9] = Pulse radiolysis (E(1) and fragmentation rate); assay type: physicochemical; conditions: determined against methylviologen
[10] = biological target: T1, erbB1; test: Cellular erbB1 inhibition under oxic and hypoxic conditions in A431 cells; assay type: cell-based; conditions: 1 μM, 4 hour exposure oxic or hypoxic, washed, EGF stimulated
Experimental: Human A431 epidermoid carcinoma cells were seeded at 400,000 cells/well in a 6 well plate in alpha minimal essential media (αMEM) containing 10% fetal bovine serum, 10 mM D-Glucose and 0.2 mM 2′-deoxycytidine. A431 cells were allowed to attach for 90 minutes under oxic or anoxic conditions, then exposed to test compounds at a concentration of 1 uM for a further 4 hours under oxic or anoxic conditions. The cells were then washed free of test compounds three times using serum free media and then returned to the incubator under oxic conditions overnight. The cells were then stimulated with 100 ng/mL EGF for 15 minutes before the medium was aspirated and the cells were washed with ice-cold PBS.

[11] = Steady state radiolytic reduction by the CO2.− radical with HPLC-MS; assay type: physicochemical; conditions: for Detection of MNA (methyl nitroaromatic) / release of effector following 1-electron reduction: HPLC-MS; for release of effector following 1-electron reduction: steady state radiolysis
[12] = tested on: H1975 xenografts; test: In vivo efficacy in H1975 xenografts; parameters: species or system mice; conditions: H1975 xenografts, q3dx4 at respective MTD, IP
Experimental: Specific pathogen-free homozygous female NIH-III nude mice (Charles River Laboratories, Wilmington, Mass.) were inoculated subcutaneously with a single cell suspension of H1975 cells (5×10^6 cells/100 μL; right flank). When H1975 tumour xenografts were established (typically 8-12 days) mice were randomized to treatment groups. All compounds were prepared in lactate buffer (pH4). Mice were dosed by intraperitoneal injection (0.01-0.03 ml/g) using the stated schedules and dose levels. For growth delay experiments mice were randomized to treatment and tumor volume [π(length×width^2)/6] and body weight were measured daily following treatment. […] Differences in RTV^4 were tested for statistical difference by Mann Whitney U test using SigmaStat v3.5.

[13] = tested on: H1975 cells; test: Cellular growth inhibition (sulforhodamine B); assay type: cell-based, Human; conditions: Table 9; for pIC50: Homo sapiens, NCI-H1975
Experimental: as §2
(§3) Human A431, H1975 and SKOV3 carcinoma cells in log phase exponential growth in alpha minimal essential media (αMEM) containing 5% fetal bovine serum (FBS), were harvested by trypsinisation (1× trypsin/EDTA, Gibco Brl), counted, and seeded into 96 well plates (Nunc) at cell densities ranging from 800-1500 cells/well. Half of the cell samples were seeded into plates that were pre-equilibrated and held in an anoxic environment (90% N2, 5% H2, 5% CO2, 37° C.; Anaerobic chamber, Coy Laboratory Products). […] At the end of this period the anoxic plates were recovered from the anaerobic camber and held under normoxia in a standard CO2 incubator (37° C.) for 20 hours. All plates were washed free of compound and cells were allowed to proliferate for a further 4 days in αMEM containing 5% FBS+antibiotics. Cells were fixed in trichloroacteic acid (30 min), washed and stained with sulforhodamine B (SRB, 60 min) prior to washing in acidified water. SRB was solubilised and absorption read at 450 nm to calculate cell densities. Inhibition of proliferation was calculated relative to untreated control wells.
They were then washed free of drug and incubated for a further 4 days, before being stained for cell survival with sulforhodamine B.

[14] = physchem
[15] = Chemical stability by HPLC; conditions: HPLC after 24 h at 37° C.
[16] = tested on: SKOV3 cells; test: Cellular growth inhibition (sulforhodamine B); assay type: cell-based, Human; conditions: Table 9; for pIC50: Homo sapiens, SK-OV-3
Experimental: as §3

[17] = A-431, 24 h, read-out: Cellular Growth Inhibition IC50 A431 Oxic
[18] = A-431, read-out: Cellular Growth Inhibition IC50 A431 Anoxic
[19] = 24 hour exposure entirely oxic, read-out: Cellular Growth Inhibition IC50 SW620 Oxic
[20] = first 4 hours anoxic, read-out: Cellular Growth Inhibition IC50 SW620 Anoxic
[21] = 24 hour exposure entirely oxic, read-out: Cellular Growth Inhibition IC50 SKBR3 Oxic
[22] = first 4 hours anoxic, read-out: Cellular Growth Inhibition IC50 SKBR3 Anoxic
[23] = HPLC-MS at 0.95 reducing equivalents

T1 sequence (P00533 25-1210): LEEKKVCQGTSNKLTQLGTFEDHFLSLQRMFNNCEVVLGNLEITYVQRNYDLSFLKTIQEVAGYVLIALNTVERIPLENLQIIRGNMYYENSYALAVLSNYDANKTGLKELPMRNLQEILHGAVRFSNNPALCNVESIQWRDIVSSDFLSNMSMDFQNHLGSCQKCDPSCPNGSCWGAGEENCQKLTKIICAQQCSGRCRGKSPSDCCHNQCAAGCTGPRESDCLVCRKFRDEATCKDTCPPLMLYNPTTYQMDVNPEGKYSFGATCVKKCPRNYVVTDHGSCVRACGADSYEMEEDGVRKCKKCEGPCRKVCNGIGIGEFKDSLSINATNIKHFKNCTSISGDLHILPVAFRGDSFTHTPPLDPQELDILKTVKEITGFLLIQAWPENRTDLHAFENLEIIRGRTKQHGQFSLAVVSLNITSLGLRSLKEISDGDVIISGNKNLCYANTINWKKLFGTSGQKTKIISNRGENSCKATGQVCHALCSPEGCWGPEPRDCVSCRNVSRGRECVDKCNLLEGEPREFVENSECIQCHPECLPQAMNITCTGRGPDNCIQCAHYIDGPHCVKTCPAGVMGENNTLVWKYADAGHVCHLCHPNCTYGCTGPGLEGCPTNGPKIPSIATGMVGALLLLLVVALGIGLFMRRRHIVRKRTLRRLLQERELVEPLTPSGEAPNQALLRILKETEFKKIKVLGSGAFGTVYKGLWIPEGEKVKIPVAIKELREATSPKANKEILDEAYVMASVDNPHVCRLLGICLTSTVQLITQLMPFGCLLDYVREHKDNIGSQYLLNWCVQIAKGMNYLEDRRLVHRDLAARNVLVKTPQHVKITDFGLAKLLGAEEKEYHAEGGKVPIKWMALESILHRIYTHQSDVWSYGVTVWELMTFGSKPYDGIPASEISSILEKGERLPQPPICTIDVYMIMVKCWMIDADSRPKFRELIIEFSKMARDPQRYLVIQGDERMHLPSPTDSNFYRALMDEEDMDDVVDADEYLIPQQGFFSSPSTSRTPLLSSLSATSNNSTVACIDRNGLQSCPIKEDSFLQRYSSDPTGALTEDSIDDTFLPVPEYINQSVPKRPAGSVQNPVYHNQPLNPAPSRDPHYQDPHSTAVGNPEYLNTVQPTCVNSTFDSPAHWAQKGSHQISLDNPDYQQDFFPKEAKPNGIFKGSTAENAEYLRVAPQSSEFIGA
Chain of erbB2 (P04626 23-1255): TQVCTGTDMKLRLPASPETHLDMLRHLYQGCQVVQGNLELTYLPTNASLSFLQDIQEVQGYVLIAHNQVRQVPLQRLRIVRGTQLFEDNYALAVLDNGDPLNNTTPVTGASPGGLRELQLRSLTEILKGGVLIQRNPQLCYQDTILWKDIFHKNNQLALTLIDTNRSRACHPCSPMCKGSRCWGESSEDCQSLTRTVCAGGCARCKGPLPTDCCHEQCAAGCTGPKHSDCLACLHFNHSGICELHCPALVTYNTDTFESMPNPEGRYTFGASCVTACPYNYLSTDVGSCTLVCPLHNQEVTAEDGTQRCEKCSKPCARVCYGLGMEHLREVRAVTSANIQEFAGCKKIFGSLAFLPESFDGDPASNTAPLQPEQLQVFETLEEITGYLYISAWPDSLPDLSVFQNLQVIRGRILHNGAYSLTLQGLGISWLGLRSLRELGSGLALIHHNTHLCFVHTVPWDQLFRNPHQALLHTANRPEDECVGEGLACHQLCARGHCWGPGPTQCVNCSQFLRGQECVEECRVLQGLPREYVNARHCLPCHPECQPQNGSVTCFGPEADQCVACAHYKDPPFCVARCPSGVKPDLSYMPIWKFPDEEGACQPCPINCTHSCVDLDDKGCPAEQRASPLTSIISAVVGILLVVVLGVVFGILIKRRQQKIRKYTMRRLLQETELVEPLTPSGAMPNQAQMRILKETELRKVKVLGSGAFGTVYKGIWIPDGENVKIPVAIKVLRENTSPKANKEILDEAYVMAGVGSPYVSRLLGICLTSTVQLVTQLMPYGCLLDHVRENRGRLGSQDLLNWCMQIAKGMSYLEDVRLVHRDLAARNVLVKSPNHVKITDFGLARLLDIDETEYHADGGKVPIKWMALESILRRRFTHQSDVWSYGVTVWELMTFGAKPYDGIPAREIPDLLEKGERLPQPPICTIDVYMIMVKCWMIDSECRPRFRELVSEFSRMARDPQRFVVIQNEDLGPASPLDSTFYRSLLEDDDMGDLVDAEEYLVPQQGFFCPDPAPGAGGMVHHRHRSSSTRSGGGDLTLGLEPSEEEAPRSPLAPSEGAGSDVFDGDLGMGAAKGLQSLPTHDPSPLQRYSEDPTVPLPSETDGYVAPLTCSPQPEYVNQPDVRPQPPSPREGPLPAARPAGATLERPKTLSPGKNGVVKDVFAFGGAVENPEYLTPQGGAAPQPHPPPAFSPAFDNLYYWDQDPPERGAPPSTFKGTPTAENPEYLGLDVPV
Chain of erbB4 (Q15303 26-1308): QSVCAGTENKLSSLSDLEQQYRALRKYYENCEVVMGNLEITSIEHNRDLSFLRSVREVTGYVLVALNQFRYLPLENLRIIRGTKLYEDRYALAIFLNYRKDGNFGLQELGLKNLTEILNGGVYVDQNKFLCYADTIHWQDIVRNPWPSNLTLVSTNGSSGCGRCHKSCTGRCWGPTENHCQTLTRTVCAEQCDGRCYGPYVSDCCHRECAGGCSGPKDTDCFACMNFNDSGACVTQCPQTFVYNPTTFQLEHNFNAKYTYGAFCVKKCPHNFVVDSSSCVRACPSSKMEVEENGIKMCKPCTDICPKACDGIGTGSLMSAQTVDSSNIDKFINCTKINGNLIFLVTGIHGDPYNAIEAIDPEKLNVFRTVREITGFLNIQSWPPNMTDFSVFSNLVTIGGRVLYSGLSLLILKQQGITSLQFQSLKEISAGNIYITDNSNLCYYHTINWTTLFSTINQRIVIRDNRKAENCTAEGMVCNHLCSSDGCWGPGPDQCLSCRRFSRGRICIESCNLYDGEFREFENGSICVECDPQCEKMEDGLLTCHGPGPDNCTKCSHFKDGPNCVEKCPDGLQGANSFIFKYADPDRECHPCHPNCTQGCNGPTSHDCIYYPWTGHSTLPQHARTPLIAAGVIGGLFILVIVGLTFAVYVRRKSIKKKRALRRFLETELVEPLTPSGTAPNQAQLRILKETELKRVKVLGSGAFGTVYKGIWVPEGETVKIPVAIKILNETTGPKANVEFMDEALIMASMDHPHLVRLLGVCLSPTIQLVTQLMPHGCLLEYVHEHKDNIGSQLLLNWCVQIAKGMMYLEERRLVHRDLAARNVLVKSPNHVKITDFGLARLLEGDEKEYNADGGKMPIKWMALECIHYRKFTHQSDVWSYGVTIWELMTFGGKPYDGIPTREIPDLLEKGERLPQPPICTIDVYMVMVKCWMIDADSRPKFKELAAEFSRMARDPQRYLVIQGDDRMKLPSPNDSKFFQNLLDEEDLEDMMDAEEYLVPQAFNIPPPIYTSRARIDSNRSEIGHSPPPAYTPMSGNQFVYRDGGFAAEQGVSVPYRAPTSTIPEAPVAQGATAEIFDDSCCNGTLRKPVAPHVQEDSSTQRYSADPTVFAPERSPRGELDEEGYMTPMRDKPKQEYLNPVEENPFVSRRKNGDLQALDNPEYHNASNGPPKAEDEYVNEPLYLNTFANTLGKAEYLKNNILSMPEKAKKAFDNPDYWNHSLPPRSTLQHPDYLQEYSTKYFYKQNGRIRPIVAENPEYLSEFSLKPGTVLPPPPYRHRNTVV
Chain of erbB1^T790M (P00533 25-1210 T790M): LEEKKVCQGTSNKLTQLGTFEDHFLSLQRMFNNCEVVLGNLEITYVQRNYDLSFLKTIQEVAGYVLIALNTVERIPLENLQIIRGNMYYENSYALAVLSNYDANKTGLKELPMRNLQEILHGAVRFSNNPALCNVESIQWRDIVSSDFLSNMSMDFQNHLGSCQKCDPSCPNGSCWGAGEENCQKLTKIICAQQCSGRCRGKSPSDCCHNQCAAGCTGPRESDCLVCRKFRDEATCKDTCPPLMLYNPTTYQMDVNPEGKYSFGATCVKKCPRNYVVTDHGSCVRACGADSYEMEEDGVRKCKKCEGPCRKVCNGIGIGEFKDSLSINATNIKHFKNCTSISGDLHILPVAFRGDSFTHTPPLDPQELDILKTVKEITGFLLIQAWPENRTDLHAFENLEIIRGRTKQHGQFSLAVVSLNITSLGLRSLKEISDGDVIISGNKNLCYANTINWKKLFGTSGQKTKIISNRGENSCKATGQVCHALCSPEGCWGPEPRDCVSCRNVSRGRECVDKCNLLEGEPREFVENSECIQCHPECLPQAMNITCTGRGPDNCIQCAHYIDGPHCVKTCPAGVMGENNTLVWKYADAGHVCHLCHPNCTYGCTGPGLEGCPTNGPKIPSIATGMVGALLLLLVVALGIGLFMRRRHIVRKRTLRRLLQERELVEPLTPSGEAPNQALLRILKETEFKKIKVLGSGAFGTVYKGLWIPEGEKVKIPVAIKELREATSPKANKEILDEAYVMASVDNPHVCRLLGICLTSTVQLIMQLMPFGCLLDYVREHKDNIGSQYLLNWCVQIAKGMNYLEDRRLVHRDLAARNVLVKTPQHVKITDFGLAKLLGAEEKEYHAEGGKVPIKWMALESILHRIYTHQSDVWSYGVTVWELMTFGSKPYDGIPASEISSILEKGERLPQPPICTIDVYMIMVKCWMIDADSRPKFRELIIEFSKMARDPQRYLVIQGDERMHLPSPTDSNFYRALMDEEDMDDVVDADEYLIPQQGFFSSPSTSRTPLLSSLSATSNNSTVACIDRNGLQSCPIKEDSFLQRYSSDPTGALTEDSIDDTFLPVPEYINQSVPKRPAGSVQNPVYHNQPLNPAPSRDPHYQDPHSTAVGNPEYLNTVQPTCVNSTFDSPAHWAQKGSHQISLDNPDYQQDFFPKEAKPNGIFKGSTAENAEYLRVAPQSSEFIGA

| Structure (SMILES) | pIC50 [1] | pIC50 [3, 17] | pIC50 [3, 18] | A431 Deact. (fold reduction in oxic growth inhibition relative to parent kinase inhibitor) [3] | A431 HCR (Hypoxic Cytotoxicity Ratio) [3] | pIC50 [4, 19] | pIC50 [4, 20] | SW620 Deact. [4] | SW620 HCR [4] | pIC50 [6] | pIC50 [7] | pIC50 [8, 21] | pIC50 [8, 22] | SKBR3 Deact. [8] | SKBR3 HCR [8] | E (1)/V (one-electron reduction potential) [9] | hypoxia-selective inhibition of p-erbB1 [10] | Detection of MNA (methyl nitroaromatic) [11] | % Loss of prodrug [11, 23] | release of effector following 1-electron reduction [11] | further results |
| --- | --- | --- | --- | --- | --- | --- | --- | --- | --- | --- | --- | --- | --- | --- | --- | --- | --- | --- | --- | --- | --- |
| Cn1cnc([N+](=O)[O-])c1C[N+](C)(C)CCCC(=O)Nc1ccc2ncnc(Nc3cccc(Br)c3)c2c1 [Compound 27, 4-{([4-(3-bromoanilino)-6-quinazolinyl]amino}-N,N-dimethyl-N-[(1-methyl-4-nitro-1H-imidazol-5-yl)methyl]-4-oxo-1-butanaminium bromide] | 6.72 | 3.59 | 4.12 | 203 fold | 3.4 fold | 3.16 | 3.23 | 37 fold | 1.2 fold | 5.44 | 9.19 | 3.30 | 4.13 | 159 fold | 7.6 fold | – | – | – | – | – | pIC50 [2]: 6.76; pIC50 [5]: 6.10; Deact. (fold reduction in cellular erbB1 inhibition relative to the parent kinase inhibitor) ([6]; A431 cells): 201 fold |
| C[N+](C)(C/C=C/C(=O)Nc1ccc2ncnc(Nc3cccc(Br)c3)c2c1)Cc1ccc([N+](=O)[O-])cc1 [Compound 17, (2E)-4-{[4-(3-bromoanilino)-6-quinazolinyl]amino}-N,N-dimethyl-N-(4-nitrobenzyl)-4-oxo-2-buten-1-ammonium bromide] | 6.96 | 6.34 | 6.35 | 12 fold | 1.0 fold | 3.95 | 3.95 | 33 fold | 1.0 fold | – | 9.25 | 5.82 | 5.74 | 19 fold | 0.8 fold | −0.408 V | no apparent hypoxia-selective inhibition | No | 33% | did not release their respective effector compounds | – |
| C[N+](C)(C/C=C/C(=O)Nc1ccc2ncnc(Nc3cccc(Br)c3)c2c1)Cc1ccccc1[N+](=O)[O-] [Compound 18, (2E)-4-{[4-(3-bromoanilino)-6-quinazolinyl]amino}-N,N-dimethyl-N-(2-nitrobenzyl)-4-oxo-2-buten-1-ammonium bromide] | 6.91 | 5.63 | 6.40 | 59 fold | 5.8 fold | 4.04 | 4.10 | 27 fold | 1.2 fold | – | 9.70 | 5.43 | 5.89 | 44 fold | 2.8 fold | −0.388 V | no apparent hypoxia-selective inhibition | No | 33% | did not release their respective effector compounds | – |
| Cn1ncc([N+](=O)[O-])c1C[N+](C)(C)C/C=C/C(=O)Nc1ccc2ncnc(Nc3cccc(Br)c3)c2c1 [Compound 22, (2E)-4-{[4-(3-bromoanilino)-6-quinazolinyl]amino}-N,N-dimethyl-N-[(1-methyl-4-nitro-1H-pyrazol-5-yl)methyl]-4-oxo-2-buten-1-ammonium bromide] | 6.87 | 5.23 | 6.25 | 147 fold | 10.4 fold | 3.55 | 3.91 | 82 fold | 2.3 fold | 5.86 | 9.34 | 4.96 | 5.79 | 136 fold | 6.7 fold | −0.449 V | no apparent hypoxia-selective inhibition | No | 35% | did not release their respective effector compounds | Deact. (fold reduction in cellular erbB1 inhibition relative to the parent kinase inhibitor) ([6]; A431 cells): 151 fold; Effector release/Prodrug loss ([11]; 0.95 reducing equivalents): 0.49; % Release of effector [11, 23]: 17% |
| C#Cc1cccc(Nc2ncnc3cnc(NC(=O)/C=C/C[N+](C)(C)Cc4c([N+](=O)[O-])ncn4C)cc23)c1 [Compound 58, (2E)-4-{[4-(3-ethynylanilino)pyrido[3,4-d]pyrimidin-6-yl]amino}-N,N-dimethyl-N-[(1-methyl-4-nitro-1H-imidazol-5-yl)methyl]-4-oxo-2-buten-1-ammonium bromide] | – | 5.70 | – | – | – | – | – | – | – | 6.29 | – | – | – | – | – | – | – | – | – | – | tumour growth inhibition (TGI) [12]: 171%; pIC50 ([3]; A-431, 4 h, read-out: Cellular Growth Inhibition IC50 A431 Anoxic): 7.46; A431 Deact. ([3]; Table 9): 74 fold; A431 HCR ([3]; Table 9): 77.9 fold; pIC50 ([13]; 24 hour exposure oxic, read-out: Cellular Growth Inhibition IC50 H1975 Oxic): 4.00; pIC50 ([13]; first 4 hours anoxic, read-out: Cellular Growth Inhibition IC50 H1975 Anoxic): 5.42; H1975 Deact. [13]: 86 fold; H1975 HCR [13]: 77.7 fold; solubility ([14]; aqueous buffer): > 1280 µM; solubility ([14]; water): > 1280 µM; Deact. erbB1 (fold reduction in cellular inhibition relative to the parent kinase inhibitor) ([6]; Table 8, A431 cells): 64 fold; Stability PBS (percentage parent remaining) [15]: 78%; Stability Water (percentage parent remaining) [15]: 98%; Stability α-MEM + FCS (5%) (percentage parent remaining) [15]: 61%; pIC50 ([16]; 24 hour exposure oxic, read-out: Cellular Growth Inhibition IC50 SKOV3 Oxic): 4.14; pIC50 ([16]; first 4 hours anoxic, read-out: Cellular Growth Inhibition IC50 SKOV3 Anoxic): 5.60; SKOV3 Deact. [16]: 133 fold; SKOV3 HCR [16]: 38.5 fold |

Reference: patent publication US9073916B2, “Prodrug forms of kinase inhibitors and their use in therapy” (AUCKLAND UNISERVICES LIMITED, priority 2009, dated 2015)
